Source: patent publication US20050222146A1, “N-substituted-n-sulfonylaminocyclopropane compounds and pharmaceutical use thereof” (priority 2003, published 2005)
pIC50: −log10 of the molar value.

Legend:
[1] = molecular target: T1, aggrecanase-1 (Homo sapiens, UniProt O75173); assay: Aggrecanase-1 inhibitory action, Particle Assay (GAG release from aggrecan-containing polyacrylamide particles); type: biochemical; conditions: 37° C. for 15 hr, read-out: Experimental Example 1 IC50 AG1
T1 sequence (O75173 213-837): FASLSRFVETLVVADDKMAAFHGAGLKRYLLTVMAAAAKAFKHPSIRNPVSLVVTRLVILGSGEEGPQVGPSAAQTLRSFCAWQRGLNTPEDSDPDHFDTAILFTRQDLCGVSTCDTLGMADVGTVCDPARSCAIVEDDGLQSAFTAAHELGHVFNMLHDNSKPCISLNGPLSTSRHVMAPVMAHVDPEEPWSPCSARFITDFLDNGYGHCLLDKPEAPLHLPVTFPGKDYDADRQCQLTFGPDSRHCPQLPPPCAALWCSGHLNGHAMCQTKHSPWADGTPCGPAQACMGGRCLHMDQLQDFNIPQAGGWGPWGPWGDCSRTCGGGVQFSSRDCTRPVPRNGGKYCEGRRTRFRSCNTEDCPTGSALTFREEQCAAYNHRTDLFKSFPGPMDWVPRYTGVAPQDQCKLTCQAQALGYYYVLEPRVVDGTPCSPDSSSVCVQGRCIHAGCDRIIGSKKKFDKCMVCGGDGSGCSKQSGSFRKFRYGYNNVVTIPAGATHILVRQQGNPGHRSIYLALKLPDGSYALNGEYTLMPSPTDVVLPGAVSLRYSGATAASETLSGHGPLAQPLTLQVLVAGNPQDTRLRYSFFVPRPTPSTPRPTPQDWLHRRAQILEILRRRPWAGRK
Outline: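 IC50 (μM) derived from % inhibition, referenced to enzyme-free and inhibitor-free wells, of GAG release read as 1,9-dimethylmethylene blue absorbance at 595 nm (chondroitin sulfate standard). Substrate: aggrecan-bearing polyacrylamide particles, exposed to enzyme plus compound in Tris-HCl for 15 hr at 37 °C.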

[2] = molecular target: T2, MMP-1 (Homo sapiens, UniProt P03956); assay: MMP-1 inhibitory action, Type I collagen Activity Measurement kit (FITC-labeled collagen type I); type: biochemical; conditions: 37° C. for 3 hr, read-out: Experimental Example 2 IC50 MMP1
T2 sequence (P03956 100-469): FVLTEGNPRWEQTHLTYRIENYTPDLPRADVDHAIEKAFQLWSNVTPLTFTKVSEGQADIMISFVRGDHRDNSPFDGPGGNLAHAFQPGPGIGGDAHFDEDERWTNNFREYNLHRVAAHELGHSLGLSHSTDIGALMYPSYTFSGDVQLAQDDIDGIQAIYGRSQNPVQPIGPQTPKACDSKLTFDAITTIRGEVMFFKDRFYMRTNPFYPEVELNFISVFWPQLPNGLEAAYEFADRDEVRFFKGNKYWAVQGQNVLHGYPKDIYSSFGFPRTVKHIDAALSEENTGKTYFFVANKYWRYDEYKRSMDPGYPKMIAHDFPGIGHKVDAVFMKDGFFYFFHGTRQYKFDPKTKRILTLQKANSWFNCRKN

Row | pIC50 [1] | pIC50 [2] | SMILES
1 | > 6.00 | ≤ 5.00 | O=C(O)CN([C@]1(C(=O)O)C[C@H]1c1ccccc1Cl)S(=O)(=O)c1ccc(-c2ccc(Cl)cc2)cc1 (relative stereo) [Example 1-13, (1R*,2S*)-1-[carboxymethyl-(4′-chloro-biphenyl-4-sulfonyl)-amino]-2-(2-chloro-phenyl)-cyclopropanecarboxylic acid]
2 | > 6.00 | ≤ 5.00 | O=C(O)[C@@]1(N(Cc2nn[nH]n2)S(=O)(=O)c2ccc(-c3ccc(Cl)cc3)cc2)C[C@H]1c1ccccc1 (relative stereo) [Example 1-15, (1R*,2S*)-1-[(4′-chloro-biphenyl-4-sulfonyl)-(2H-tetrazol-5-ylmethyl)-amino]-2-phenyl-cyclopropanecarboxylic acid]
3 | > 7.00 | ≤ 5.00 | O=C(O)C(=O)c1ccc(CN(C2(C(=O)O)CC2c2ccccc2)S(=O)(=O)c2ccc(-c3ccc(Cl)cc3)cc2)cc1 (stereo not drawn) [Example 1-103, (1R*,2S*)-1-[(4′-chloro-biphenyl-4-sulfonyl)-(4-oxalyl-benzyl)-amino]-2-phenyl-cyclopropanecarboxylic acid]
4 | > 7.00 | ≤ 5.00 | O=C(O)CN([C@]1(C(=O)O)C[C@H]1c1cccc(OC2CCCCC2)c1)S(=O)(=O)c1ccc(-c2ccc(Cl)cc2)cc1 (relative stereo) [Example 1-48, (1R*,2S*)-1-[carboxymethyl-(4′-chloro-biphenyl-4-sulfonyl)-amino]-2-(3-cyclohexyloxy-phenyl)-cyclopropanecarboxylic acid]
5 | > 6.00 | ≤ 5.00 | CS(=O)(=O)Nc1cccc(CN([C@]2(C(=O)O)C[C@H]2c2ccccc2)S(=O)(=O)c2ccc(-c3ccc(Cl)cc3)cc2)c1 (relative stereo) [Example 1-62, (1R*,2S*)-1-[(4′-chloro-biphenyl-4-sulfonyl)-(3-methanesulfonylamino-benzyl)-amino]-2-phenyl-cyclopropanecarboxylic acid]
6 | ≤ 6.00 | ≤ 5.00 | O=C(O)[C@@]1(N(CCN2CCOCC2)S(=O)(=O)c2ccc(-c3ccc(Cl)cc3)s2)C[C@H]1c1ccccc1 [Example 2-14, (1R,2S)-1-[[5-(4-Chloro-phenyl)-thiophene-2-sulfonyl]-(2-morpholin-4-yl-ethyl)-amino]-2-phenyl-cyclopropanecarboxylic acid]

The remaining lines, values behind:

Row | SMILES | pIC50 [1] | pIC50 [2]
7 | O=C(CN([C@]1(C(=O)O)C[C@H]1c1ccccc1)S(=O)(=O)c1ccc(-c2ccc(Cl)cc2)cc1)N1CCCC1 (relative stereo) [Example 1-45, (1R*,2S*)-1-[(4′-chloro-biphenyl-4-sulfonyl)-(2-oxo-2-pyrrolidin-1-yl-ethyl)-amino]-2-phenyl-cyclopropanecarboxylic acid] | > 6.00 | ≤ 5.00
8 | O=C(O)[C@@]1(N(CCNS(=O)(=O)C(F)(F)F)S(=O)(=O)c2ccc(-c3ccc(Cl)cc3)cc2)C[C@H]1c1cccc(NS(=O)(=O)CCN2CCCCC2)c1 (relative stereo) [Example 1-90, (1R*,2S*)-1-[(4′-chloro-biphenyl-4-sulfonyl)-(2-trifluoromethanesulfonylamino-ethyl)-amino]-2-[3-(2-piperidin-1-yl-ethanesulfonylamino)-phenyl]-cyclopropanecarboxylic acid] | > 6.00 | ≤ 5.00
9 | O=C(CN([C@]1(C(=O)O)C[C@H]1c1ccccc1)S(=O)(=O)c1ccc(-c2ccc(Cl)cc2)cc1)Nc1nnn[nH]1 (relative stereo) [Example 1-61, (1R*,2S*)-1-{(4′-chloro-biphenyl-4-sulfonyl)-[(1H-tetrazol-5-ylcarbamoyl)-methyl]-amino}-2-phenyl-cyclopropanecarboxylic acid] | > 6.00 | ≤ 5.00
10 | Cc1ccc([C@@H]2C[C@@]2(C(=O)O)N(CC(=O)O)S(=O)(=O)c2ccc(-c3ccc(Cl)cc3)cc2)cc1 (relative stereo) [Example 1-18, (1R*,2S*)-1-[carboxymethyl-(4′-chloro-biphenyl-4-sulfonyl)-amino]-2-(4-methyl-phenyl)-cyclopropanecarboxylic acid] | > 6.00 | ≤ 5.00
11 | CS(=O)(=O)NC(=O)CN([C@]1(C(=O)O)C[C@H]1c1ccccc1)S(=O)(=O)c1ccc(-c2ccc(Cl)cc2)cc1 (relative stereo) [Example 1-38, (1R*,2S*)-1-[(4′-chloro-biphenyl-4-sulfonyl)-(2-methanesulfonylamino-2-oxo-ethyl)-amino]-2-phenyl-cyclopropanecarboxylic acid] | > 6.00 | ≤ 5.00
12 | O=C(O)c1cccc(CN([C@]2(C(=O)O)C[C@H]2c2cccc(NC(=O)c3cccnc3)c2)S(=O)(=O)c2ccc(-c3ccc(Cl)cc3)cc2)c1 (relative stereo) [Example 1-99, 3-{[((1R*, 2S*)-1-carboxy-2-{3-[(pyridin-3-carbonyl)-amino]-phenyl}-cyclopropyl)-(4′-chloro-biphenyl-4-sulfonyl)-amino]-methyl}-benzoic acid] | > 7.00 | ≤ 5.00
13 | CNC(=O)c1cnn(CCN([C@]2(C(=O)O)C[C@H]2c2ccccc2)S(=O)(=O)c2ccc(-c3ccc(Cl)cc3)cc2)c1 (relative stereo) [Example 1-106, (1R*,2S*)—{(4′-chloro-biphenyl-4-sulfonyl)-[2-(4-methylcarbamoyl-pyrazol-1-yl)-ethyl]-amino}-2-phenyl-cyclopropanecarboxylic acid] | > 6.00 | ≤ 6.00
14 | O=C(O)[C@@]1(N(Cc2noc(=O)[nH]2)S(=O)(=O)c2ccc(-c3ccc(Cl)cc3)cc2)C[C@H]1c1cccc(Oc2ccccc2)c1 (relative stereo) [Example 1-72, (1R*,2S*)-1-[(4′-chloro-biphenyl-4-sulfonyl)-(5-oxo-4,5-dihydro-[1,2,4]oxadiazol-3-ylmethyl)-amino]-2-(3-phenoxy-phenyl)-cyclopropanecarboxylic acid] | > 7.00 | ≤ 5.00
15 | O=C(O)[C@@]1(N(Cc2cccc(O)c2)S(=O)(=O)c2ccc(-c3ccc(Cl)cc3)cc2)C[C@H]1c1ccccc1 (relative stereo) [Example 1-17, (1R*,2S*)-1-[(4′-chloro-biphenyl-4-sulfonyl)-(3-hydroxy-benzyl)-amino]-2-phenyl-cyclopropanecarboxylic acid] | > 6.00 | ≤ 5.00
16 | O=C(O)CN([C@]1(C(=O)O)C[C@H]1c1cccc(OC2CCNCC2)c1)S(=O)(=O)c1ccc(-c2ccc(Cl)cc2)cc1 (relative stereo) [Example 1-68, (1R*,2S*)-1-[carboxymethyl-(4′-chloro-biphenyl-4-sulfonyl)-amino]-2-[3-(piperidin-4-yloxy)-phenyl]-cyclopropanecarboxylic acid] | > 6.00 | ≤ 5.00
17 | Cc1cccc([C@@H]2C[C@@]2(C(=O)O)N(CC(=O)O)S(=O)(=O)c2ccc(-c3ccc(Cl)cc3)cc2)c1 (relative stereo) [Example 1-20, (1R*,2S*)-1-[carboxymethyl-(4′-chloro-biphenyl-4-sulfonyl)-amino]-2-(3-methyl-phenyl)-cyclopropanecarboxylic acid] | > 6.00 | ≤ 5.00
18 | O=C(O)c1cnn(CCN(C2(C(=O)O)CC2c2ccccc2)S(=O)(=O)c2ccc(-c3ccc(Cl)cc3)cc2)c1 (stereo not drawn) [Example 1-79, 1-{2-[(1R*,2S*)-1-carboxy-2-phenyl-cyclopropyl)-(4′-chloro-biphenyl-4-sulfonyl)-amino]-ethyl}-1H-pyrazol-4-carboxylic acid] | > 7.00 | ≤ 5.00
